# Where “and” joins values, the source holds several entries; their conditions need not be identical. Equal entries are not always repeated.
# System: WM3248 melanoma cells, 486 antibodies
# Test: Reverse phase protein arrays (RPPA);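 on Cyclin.E1.R.V RPPA level: ratio of treated to vehicle (0 µM) normalized linear protein signal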;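 on DDB.1.R.V RPPA level: ratio of treated to vehicle (0 µM) normalized linear protein signal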
# Assay type: cell-based, Human
# Conditions: 20 uM
# Text: Pellets were snap frozen in liquid nitrogen and shipped to MD Anderson Cancer Center core RPPA facility for RPPA analysis (Table S5). Three biological replicates for each sample were generated.
# Nomenclatures on the RPPA heatmaps: name_of_antibody.species_of_antibody.status_of_antibody. V - antibody validated; C - validation of antibody in progress; Q - antibody nonspecific; E – under evaluation; antibodies raised in M - mouse, G - goat, R - rabbit, or T - rat.
smiles,measurement,setting,value
"CN(C)c1cccc(Nc2cc(-c3ccccc3)nc(C3CCNCC3)n2)c1 [ARN22089, N1,N1-dimethyl-N3-(6-phenyl-2-(piperidin-4-yl)pyrimidin-4-yl)benzene-1,3-diamine]",Cyclin.D3.M.V RPPA level,replicates,0.858 and 0.793 and 0.870
same,Cyclin.E1.R.V RPPA level,replicates,1.034 and 0.978 and 0.864
same,Cyclophilin.F.M.V RPPA level,replicates,1.052 and 0.867 and 0.858
same,D.a.Tubulin.R.V RPPA level,replicates,0.908 and 1.131 and 1.049
same,DAPK1_pS308.M.C RPPA level,replicates,1.387 and 1.152
same,DAPK2.R.C RPPA level,replicates,0.896 and 1.008 and 1.104
same,DDB.1.R.V RPPA level,replicates,1.000 and 0.862 and 0.981
same,DDR1.R.V RPPA level,replicates,1.126 and 0.892 and 0.988
same,DDR1_pY513.R.C RPPA level,replicates,1.221 and 1.216 and 0.940
same,DJ1.R.V RPPA level,replicates,0.994 and 0.831 and 1.019
same,DM.Histone.H3.R.V RPPA level,replicates,4.051 and 0.967
same,DM.K9.Histone.H3.M.V RPPA level,replicates,1.226 and 2.170 and 0.946
same,DNA.Ligase.IV.R.C RPPA level,replicates,0.890 and 0.918 and 1.135
same,DNA_POLG.R.V RPPA level,replicates,1.260 and 0.956 and 0.859
same,c.Jun_pS73.R.V RPPA level,replicates,0.959 and 1.053 and 0.897
same,c.Kit.R.V RPPA level,replicates,1.404 and 1.046 and 0.973
same,c.Met_pY1234_Y1235.R.V RPPA level,replicates,0.958 and 1.104 and 1.130
same,c.Myc.R.C RPPA level,replicates,0.956 and 0.888 and 0.971
same,cGAS.R.V RPPA level,replicates,1.158 and 0.984
same,cdc2_pY15.R.C RPPA level,replicates,0.840 and 1.245 and 1.217
same,cdc25C.R.V RPPA level,replicates,0.813 and 0.749 and 1.085
same,RPPA MYH11.R.C,single replicates,1.235 and 1.080 and 0.987
same,RPPA Myosin.IIa.R.C,single replicates,0.819 and 0.811 and 1.194
same,RPPA Myosin.IIa_pS1943.R.V,single replicates,1.011 and 0.857 and 1.050
same,RPPA Myt1.R.C,single replicates,0.843 and 1.001 and 1.193
same,RPPA N.Cadherin.R.V,single replicates,1.047 and 1.081 and 0.976
same,RPPA N.Ras.M.V,single replicates,0.921 and 0.893 and 0.971
same,RPPA NAPSIN.A.R.C,single replicates,0.982 and 1.016 and 1.141
same,RPPA NDRG1_pT346.R.V,single replicates,0.868 and 0.915 and 1.192
same,RPPA NDUFB4.R.V,single replicates,1.100 and 0.998 and 0.982
same,RPPA NRF2.R.C,single replicates,0.849 and 0.982 and 0.977
same,RPPA Notch1.R.V,single replicates,1.052 and 1.121 and 0.952
same,RPPA Notch1.cleaved.R.V,single replicates,0.740 and 0.849 and 1.080
same,RPPA Notch3.R.C,single replicates,1.026 and 1.150 and 0.931
same,RPPA Oct.4.R.C,single replicates,0.991 and 1.164 and 1.209
same,RPPA P.Cadherin.R.C,single replicates,1.264 and 1.125
same,RPPA PAI.1.M.V,single replicates,1.005 and 1.281 and 0.932
same,RPPA PAICS.R.C,single replicates,0.803 and 0.811 and 1.058
same,RPPA PAK1.R.V,single replicates,0.820 and 0.886 and 1.049
same,RPPA PAK4.R.V,single replicates,1.076 and 0.939
same,RPPA PAK_pS474_S602_S560.R.V,single replicates,1.380 and 1.298 and 0.931
same,RPPA PAK_pT423_T402.R.C,single replicates,1.015 and 1.053 and 0.971
same,RPPA PAR.R.C,single replicates,0.974 and 1.464 and 0.714
same,RPPA PARG.R.C,single replicates,1.599 and 1.316 and 1.014
same,RPPA PARP.R.V,single replicates,0.538 and 1.057 and 1.348
same,RPPA PAX6.R.V,single replicates,1.001 and 1.058 and 0.982
same,RPPA PAX8.R.C,single replicates,1.024 and 0.925 and 0.962
same,RPPA PCNA.M.C,single replicates,0.783 and 0.854 and 0.955
same,RPPA PD.1.R.V,single replicates,1.098 and 1.052 and 0.984
same,RPPA PD.L1.R.C,single replicates,0.895 and 1.054 and 1.001
same,RPPA PDH.M.V,single replicates,0.970 and 1.058 and 0.953
same,RPPA PDHA1.R.V,single replicates,0.972 and 1.004 and 1.113
same,RPPA PDHK1.R.C,single replicates,0.803 and 0.959 and 1.129
same,RPPA PDK1.R.V,single replicates,1.000 and 1.250
same,RPPA PDK1_pS241.R.V,single replicates,0.916 and 0.898 and 1.103
same,RPPA PEA.15.R.V,single replicates,0.986 and 0.870 and 0.999
same,RPPA PEA.15_pS116.R.V,single replicates,1.029 and 0.986
same,RPPA PERK.R.V,single replicates,1.320 and 0.802 and 0.841
same,RPPA PGM1.R.V,single replicates,0.846 and 0.933
same,RPPA PHGDH.R.C,single replicates,0.989 and 0.962
same,RPPA PHLPP.R.V,single replicates,1.674 and 0.930 and 0.767
same,RPPA PI3K.p85.R.C,single replicates,1.023 and 0.792 and 0.886
same,RPPA PI3K.p110.a.R.C,single replicates,0.804 and 0.921
same,RPPA PI3K.p110.b.M.C,single replicates,0.988 and 0.918 and 0.941
same,RPPA PKA.a.R.V,single replicates,0.974 and 0.780 and 1.028
same,RPPA PKC.a.b.II_pT638_T641.R.V,single replicates,0.684 and 0.941 and 1.154
same,RPPA PKC.b.II_pS660.R.V,single replicates,0.997 and 1.114 and 1.126
same,RPPA PKCa.R.V,single replicates,0.630 and 2.106 and 1.942
same,RPPA PKM2.R.C,single replicates,0.846 and 0.763
same,RPPA PLC.gamma1.R.V,single replicates,1.296 and 0.944 and 0.963
same,RPPA PLC.gamma1_pS1248.R.V,single replicates,0.837 and 0.893 and 0.954
same,RPPA PLC.gamma2_pY759.R.V,single replicates,1.000 and 1.004 and 0.945
same,RPPA PLK1.R.C,single replicates,1.107 and 0.592 and 1.060
same,RPPA PMS2.R.V,single replicates,1.016 and 0.991 and 0.952
same,RPPA PR.R.V,single replicates,0.957 and 0.966 and 0.945
same,RPPA PRAS40.M.C,single replicates,1.496 and 1.229 and 0.955
same,RPPA PRAS40_pT246.R.V,single replicates,1.099 and 1.166
same,RPPA PRC1_pT481.R.C,single replicates,1.163 and 1.114 and 0.975
same,RPPA PREX1.R.V,single replicates,0.874 and 0.851 and 1.124
same,RPPA PTEN.R.V,single replicates,1.018 and 1.109 and 1.120
same,RPPA PTPN12.R.V,single replicates,1.234 and 1.447
same,RPPA PYGB.R.V,single replicates,1.097 and 1.103
same,RPPA PYGM.M.C,single replicates,0.934 and 0.932 and 1.083
same,RPPA Patched.R.C,single replicates,0.965 and 1.140 and 1.132
same,RPPA Paxillin.R.C,single replicates,0.641 and 0.823 and 1.018
same,RPPA Pdcd4.R.C,single replicates,0.925 and 0.993 and 1.052
same,RPPA Porin.M.V,single replicates,1.104 and 0.957
same,RPPA Puma.R.C,single replicates,0.983 and 0.942 and 1.107
same,RPPA Pyk2_pY402.R.C,single replicates,0.954 and 1.153 and 1.099
same,RPPA RBM15.R.V,single replicates,1.017 and 0.937 and 1.032
same,RPPA RIP3.R.C,single replicates,0.931 and 0.981
same,RPPA RIP.R.C,single replicates,0.915 and 1.063
same,RPPA RPA32.R.V,single replicates,1.148 and 1.033 and 1.052
same,RPPA RPA32_pS4_S8.R.C,single replicates,2.002 and 1.599 and 0.993
same,RPPA RRM1.R.C,single replicates,0.824 and 0.941
same,RPPA RRM2.R.C,single replicates,0.754 and 0.881 and 1.132
same,RPPA RSK1.R.V,single replicates,0.828 and 0.819
same,RPPA RSK.R.C,single replicates,1.012 and 0.889 and 1.017
same,RPPA Rab11.R.C,single replicates,1.004 and 1.130
same,RPPA Rab25.R.V,single replicates,0.958 and 1.084
same,RPPA Rad17_pS645.R.V,single replicates,0.998 and 1.234 and 0.987
same,RPPA Rad23A.R.C,single replicates,0.881 and 0.793 and 1.163
same,RPPA Rad50.R.V,single replicates,1.028
same,RPPA Rad51.R.C,single replicates,0.897 and 0.995 and 0.927
same,RPPA Raptor.R.V,single replicates,0.847 and 1.006 and 1.049
same,RPPA Rb.M.Q,single replicates,1.078 and 0.962 and 0.891
same,RPPA Rb_pS807_S811.R.V,single replicates,0.920 and 0.719 and 1.081
same,RPPA Rheb.M.C,single replicates,1.252 and 1.239
same,RPPA Rictor.R.C,single replicates,0.967
same,RPPA Rictor_pT1135.R.V,single replicates,1.012 and 1.102 and 1.115
same,RPPA S6.M.V,single replicates,1.262 and 0.956 and 0.729
same,RPPA S6_pS235_S236.R.V,single replicates,0.203 and 0.249 and 0.565
same,RPPA S6_pS240_S244.R.V,single replicates,0.207 and 0.313 and 0.749
same,RPPA SCD.M.V,single replicates,1.014 and 0.906 and 0.962
same,RPPA SDHA.R.V,single replicates,1.002 and 1.200
same,RPPA SF2.R.V,single replicates,1.008 and 0.980
same,RPPA SFRP1.R.V,single replicates,1.055 and 0.981 and 0.922
same,RPPA SGK1.R.V,single replicates,0.787 and 0.759 and 0.980
same,RPPA SGK3.R.V,single replicates,1.047 and 1.079 and 0.942
same,RPPA SHP2.R.V,single replicates,1.046 and 1.001 and 0.967
same,RPPA SHP.2_pY542.R.C,single replicates,1.101
same,RPPA SIRPαR.V,single replicates,1.429 and 0.758 and 0.756
same,RPPA SLC1A5.R.C,single replicates,1.116 and 0.885 and 1.238
same,RPPA SOD1.M.V,single replicates,0.930 and 1.026 and 0.944
same,RPPA SOD2.R.V,single replicates,1.210 and 1.153 and 0.970
same,RPPA SOX7.R.V,single replicates,1.129 and 1.097 and 1.010
same,RPPA STING.R.V,single replicates,1.022 and 0.890 and 0.979
same,RPPA Shc_pY317.R.C,single replicates,0.878 and 1.001 and 1.156
same,RPPA Slfn11.G.C,single replicates,1.081 and 0.905 and 0.999
same,RPPA Smac.M.Q,single replicates,1.032 and 0.944 and 0.954
same,RPPA Smad1.R.V,single replicates,0.952 and 1.150 and 1.141
same,RPPA Smad3.R.V,single replicates,1.122 and 1.116
same,RPPA Smad4.R.V,single replicates,1.439 and 1.061 and 0.837
same,RPPA Snail.M.Q,single replicates,0.766 and 0.784 and 0.712
same,RPPA Sox2.R.V,single replicates,1.214 and 1.389
same,RPPA Sox17.R.V,single replicates,0.937 and 0.923
same,RPPA Src.M.V,single replicates,0.956 and 1.011 and 0.918
same,RPPA Src_pY416.R.V,single replicates,0.994 and 1.111 and 0.997
same,RPPA Src_pY527.R.V,single replicates,1.022 and 1.387 and 1.151
same,RPPA Stat1_pY701.R.V,single replicates,1.097 and 1.029 and 0.986
same,RPPA Stat3.R.C,single replicates,0.851 and 0.986 and 1.101
same,RPPA Stat3_pY705.R.C,single replicates,1.728 and 1.194 and 0.922
same,RPPA Stat5a.R.V,single replicates,0.903 and 1.373 and 1.278
same,RPPA Stathmin.1.R.V,single replicates,0.916 and 0.858 and 0.997
same,RPPA Syk.M.V,single replicates,0.934 and 1.057 and 0.933
same,RPPA Synaptophysin.R.C,single replicates,1.153 and 0.998 and 0.965
same,RPPA TAZ.R.V,single replicates,0.631 and 0.534 and 0.991
same,RPPA TEAD.R.C,single replicates,0.716 and 1.191
same,RPPA TFAM.R.V,single replicates,0.999 and 0.944 and 0.992
same,RPPA TFRC.R.V,single replicates,0.895 and 0.844 and 1.062
same,RPPA TIGAR.R.V,single replicates,1.012 and 1.022 and 1.077
same,RPPA TRAP1.M.V,single replicates,0.979 and 0.864 and 0.990
same,RPPA TRIM24.R.C,single replicates,1.117 and 0.958
same,RPPA TRIM25.R.C,single replicates,0.754 and 0.868 and 1.058
same,RPPA TRIP13.R.V,single replicates,1.019 and 0.950 and 0.966
same,RPPA Tau.M.C,single replicates,1.147 and 1.195 and 0.925
same,RPPA Transglutaminase.M.V,single replicates,0.881 and 1.342 and 1.747
same,RPPA level HLA.DQA1.R.V,single replicates,1.062 and 1.076 and 0.920
same,RPPA level HLA.DR.DP.DQ.DX.R.C,single replicates,1.376 and 1.011 and 0.963
same,RPPA level HMHA1.R.V,single replicates,1.204
same,RPPA level HNRNPK.R.V,single replicates,1.033 and 1.100
same,RPPA level HSP27.M.C,single replicates,0.818 and 0.879 and 0.896
same,RPPA level HSP27_pS82.R.V,single replicates,0.857 and 1.102 and 1.157

# — publication PMC9127750, “Structure-based design of CDC42 effector interaction inhibitors for the treatment of cancer” (Cell reports, 2022)
